Measured values taken from patent publication US20230265157A1, “MHC MULTIMER EXPRESSION CONSTRUCTS AND USES THEREOF” (priority 2020, published 2023).

Tested on: WT-1-specific T cells
Assay: Specific cell staining / titration on WT-1-specific T cells
Format: cell-based
Settings: untreated, digested and WT-1-exchanged tetramers at 1 nM and 20 nM
Description: The amino acid sequence of the Y84A HLA alpha chain is shown in SEQ ID NO: 321. This mutation is known in the art to stabilize binding of the tethered peptide by reducing steric conflict with the peptide linker.

Substance: Y84A variant of the A*02:01 tetramer
- staining of NLV- and WT-1-specific CD8+ T cells: converting NLV reactivity to WT-1 reactivity
